Measured values reported in publication PMC10597491 (PLOS ONE, 2023).
Bridge positions count the residues as written; N and C are the ends. Ends that are not written are not given here.

Target: T1, IL-7R (Homo sapiens, UniProt P16871+P31785)
T1 construct: constructed to express full-length human IL-7Rα in TF-1 cells; TF-1 cells, which naturally express γc, but not IL-7Rα; expressed in transfected cells
T1 sequence (P16871 21-459): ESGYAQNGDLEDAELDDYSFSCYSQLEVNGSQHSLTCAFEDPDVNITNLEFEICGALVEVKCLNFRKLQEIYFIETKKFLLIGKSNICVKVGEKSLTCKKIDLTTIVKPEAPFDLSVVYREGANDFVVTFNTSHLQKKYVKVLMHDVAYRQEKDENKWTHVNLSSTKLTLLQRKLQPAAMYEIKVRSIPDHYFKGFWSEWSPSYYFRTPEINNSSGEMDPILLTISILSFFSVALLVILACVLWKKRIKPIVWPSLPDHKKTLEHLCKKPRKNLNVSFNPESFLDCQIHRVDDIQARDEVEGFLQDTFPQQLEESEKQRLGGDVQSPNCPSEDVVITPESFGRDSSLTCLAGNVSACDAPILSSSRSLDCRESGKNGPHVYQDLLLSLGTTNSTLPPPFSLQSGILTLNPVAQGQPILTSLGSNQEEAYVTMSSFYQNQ
T1 sequence (P31785 23-369): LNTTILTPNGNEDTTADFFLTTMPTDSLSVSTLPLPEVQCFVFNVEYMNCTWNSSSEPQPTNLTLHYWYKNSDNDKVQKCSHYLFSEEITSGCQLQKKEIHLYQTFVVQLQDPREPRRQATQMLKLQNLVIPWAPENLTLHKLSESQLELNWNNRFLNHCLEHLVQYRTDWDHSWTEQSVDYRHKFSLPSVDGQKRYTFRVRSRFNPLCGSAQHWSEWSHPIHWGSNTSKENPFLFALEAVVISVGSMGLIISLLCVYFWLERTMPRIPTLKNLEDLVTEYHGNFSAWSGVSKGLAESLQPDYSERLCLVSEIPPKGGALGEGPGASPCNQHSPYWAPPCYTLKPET
Test: STAT5 phosphorylation in TF1-7Rα cells
Format: cell-based
Experimental: The synthetic peptide MDK1472 was designed to bind simultaneously to IL-7Rα and γc subunits and was tested for its ability to induce phosphorylation of STAT5, the primary IL-7R signaling pathway.
Reactions were stopped and cell lysates prepared for pSTAT5 analysis.
Cells were deprived of growth factors by overnight incubation at 5×10^5 cells/mL in starvation medium (RPMI 1640 + 4.5 g/L glucose + 0.2% FBS + 2 mM L-glutamine + 1 mM NaPyr + 10 mM HEPES + 0.5x penicillin-streptomycin with no cytokine supplement) in T75 flasks. For assays, cells were plated in 96-well V-bottom plates at 2×10^5 cells/well. Three-fold serial dilutions in starvation medium of the test compounds or cytokine were added to the cells and incubated for 30 min at 37°C. Following incubation, cell extracts were prepared by adding a mixture of 10x Cell Lysis Buffer (Cell Signaling Technology Cat# 9803) and 100x HALT Phosphatase and Protease Inhibitor Cocktail (Thermo Fisher Cat# 78442) directly to the wells. The plates were agitated at 25°C for 5 min to prepare cell extracts for immediate use or to be stored at -80°C until assay. Detection of pSTAT5 was performed using a PathScan® Phospho-Stat5 (pTyr694) Sandwich ELISA Kit (Cell Signaling Technology Cat# 7113). Detection of pSTAT6 was performed using a PathScan® Phospho-Stat6 (pTyr641) Sandwich ELISA Kit (Cell Signaling Technology Cat# 7275). Detection of pSTAT3 was performed using a PathScan® Phospho-Stat3 (pTyr705) Sandwich ELISA Kit (Cell Signaling Technology Cat# 7300). Cell lysates were added to pre-coated ELISA wells and incubated at 4°C overnight. Primary and secondary antibody incubations and wash steps were performed according to the protocols supplied by the manufacturer. Assays were developed using TMB substrate (Surmodics Cat# TMBW-1000-01) for 5–10 min at 25°C and the reaction was stopped using STOP solution (Surmodics Cat# LSTP-1000-01).

EC50 (Fig 4A dose response, 30 min at 37°C, pSTAT5 ELISA): 0.018 µM | efficacy (Emax) of STAT5 phosphorylation relative to IL-7 (TF1-7Rα cells, Fig 3): full efficacy
Substance: Ac-GWGIPWCTLDPGSLQCAWLGKHGGGGSGGVVCQDWEGVELCWQGG (disulfide 7-16, 32-41) [MDK1472]
dependence of agonist activity on IL-7Rα expression (TF-1 parental (γc+) versus TF1-7Rα cells): completely dependent on IL-7Rα expression
